# Assay results: patent US7615366B2, “Bacillus amyloliquefaciens KTGB0202 and control method of plant pathogenic fungi using that” (KT & G Co., Ltd., priority 2003, dated 2009)
# Legend:
# melon powdery mildew = test: Control effect against melon powdery mildew; settings: 4000-fold-diluted concentration (control chemicals)
# Text: The bacteria culture was spread to melons with a powdery mildew incidence of about 10% under greenhouse conditions three times at one-week intervals, and after 7 days, the results were examined.
# Trifumin® and Fenari® (Fenarimol) were used at a 4000-fold-diluted concentration, a recommended concentration for farmhouses.
# The number of leaves with melon powdery mildew was counted before and after treatment so as to yield therapeutic effects.
# cucumber powdery mildew = test: Control effect against cucumber powdery mildew; settings: 4000-fold-diluted concentration (control chemical)
# Text: Also, Trifumin® (Triflumizole) was used at a 4000-fold-diluted concentration, a recommended concentration for farmhouses.
structure (smiles),measurement,setting,value
"CCCOC/C(=N\c1ccc(Cl)cc1C(F)(F)F)n1ccnc1 [Trifumin ® (Triflumizole), Triflumizole]",Number of infected leaves before treatment/number of infected leaves after treatment,melon powdery mildew,10/0
same,Therapeutic effect,melon powdery mildew,100
same,Control effect (%),cucumber powdery mildew,96.59%
same,Incidence (%),cucumber powdery mildew,3.41%
"OC(c1ccc(Cl)cc1)(c1cncnc1)c1ccccc1Cl (stereo not drawn) [Fenari ® (Fenarimol), Fenarimol]",Number of infected leaves before treatment/number of infected leaves after treatment,melon powdery mildew,9/6
same,Therapeutic effect,melon powdery mildew,33.4
